# Tests used:
# [1] = tested on: Human Multiple Myeloma NCI-H929 cells; experiment: Orthotopic osteolysis model, microCT analysis of tibia (bone lysis); format: in vivo, SCID mice; settings: for Total Bone Lysis: microCT, day 42, vehicle control = 100.0, Melphalan 4 mg/kg i.v., MOR03087 3 mg/kg i.p., 3x weekly for 6 weeks, data of FIG. 1
# [2] = tested on: Human Multiple Myeloma NCI-H929 cells; experiment: M-Protein concentration in sera (ELISA) on day 42 of the orthotopic osteolysis model; format: in vivo, SCID mice; settings: sera at termination (day 42), versus mice that received solvent diluent only, FIG. 3
molecule,measurement,setting,value
N[C@@H](Cc1ccc(N(CCCl)CCCl)cc1)C(=O)O [Melphalan],"Bone lysis (microCT, FIG. 2)","[1]; Melphalan 8 mg/kg alone, i.v. 3x weekly for 6 weeks, day 42",reduced bone lysis completely
same,Total Bone Lysis,[1],61.3%
same,Protein M concentration in sera,[2],significantly reduced
"MOR03087: anti-CD38 antibody whose amino acid sequence and DNA sequence is provided in FIG. 4; disclosed in U.S. Pat. No. 8,088,896 (antibody, listed as Homo sapiens, V domains shown, MOR202 Variable Heavy Domain; MOR202 Variable Light Domain) VH: QVQLVESGGGLVQPGGSLRLSCAASGFTFSSYYMNWVRQAPGKGLEWVSGISGDPSNTYYADSVKGRFTISRDNSKNTLYLQMNSLRAEDTAVYYCARDLPLVYTGFAYWGQGTLVTVSS VL: DIELTQPPSVSVAPGQTARISCSGDNLRHYYVYWYQQKPGQAPVLVIYGDSKRPSGIPERFSGSNSGNTATLTISGTQAEDEADYYCQTYTGGASLVFGGGTKLTVLGQ",Total Bone Lysis,[1],27.6%
same,Protein M concentration in sera,[2],significantly reduced
